Active and inactive are the calls of the source.

This note sets out measurements from ChEMBL document CHEMBL4610129, “Discovery of Novel Selective and Orally Bioavailable Phosphodiesterase-1 Inhibitors for the Efficient Treatment of Idiopathic Pulmonary Fibrosis” (J Med Chem, 2020).

The target of data set [1] is T1, Dual specificity calcium/calmodulin-dependent 3',5'-cyclic nucleotide phosphodiesterase 1C (Homo sapiens, UniProt Q14123). Briefly: Inhibition of PDE1C2 (147 to 531 residues) (unknown origin) using [3H]-cGMP substrate incubated for 15 mins by liquid scintillation counting method.
T1 sequence (Q14123 whole entry, the tested form may be a part): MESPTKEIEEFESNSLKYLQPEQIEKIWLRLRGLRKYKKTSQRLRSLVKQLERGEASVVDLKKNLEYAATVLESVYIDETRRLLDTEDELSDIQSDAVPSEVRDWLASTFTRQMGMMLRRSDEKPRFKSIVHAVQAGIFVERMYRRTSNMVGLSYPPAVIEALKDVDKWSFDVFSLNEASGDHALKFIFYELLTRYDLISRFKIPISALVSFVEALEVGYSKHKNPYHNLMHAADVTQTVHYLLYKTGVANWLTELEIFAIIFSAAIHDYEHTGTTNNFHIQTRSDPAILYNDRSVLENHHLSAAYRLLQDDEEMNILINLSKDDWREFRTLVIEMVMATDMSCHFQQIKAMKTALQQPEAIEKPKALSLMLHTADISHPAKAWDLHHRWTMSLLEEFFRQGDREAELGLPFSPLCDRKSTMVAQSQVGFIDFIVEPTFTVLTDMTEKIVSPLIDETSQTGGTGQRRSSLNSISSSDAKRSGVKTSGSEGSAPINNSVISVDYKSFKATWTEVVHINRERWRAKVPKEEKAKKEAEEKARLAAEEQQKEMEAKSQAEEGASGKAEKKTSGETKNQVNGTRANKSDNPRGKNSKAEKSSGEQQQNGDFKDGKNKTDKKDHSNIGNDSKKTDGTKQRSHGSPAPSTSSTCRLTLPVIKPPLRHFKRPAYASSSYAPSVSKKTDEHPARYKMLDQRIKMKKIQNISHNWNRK
Data set [2] is described as follows: Half life in rat liver microsomes. In kind it is ADME, Microsome.
For data set [3], the target named is T1, Dual specificity calcium/calmodulin-dependent 3',5'-cyclic nucleotide phosphodiesterase 1C. In words: Inhibition of PDE1C2 (147 to 531 residues) (unknown origin) at 100 nM using [3H]-cGMP substrate incubated for 15 mins by liquid scintillation counting method relative to control.
In data set [4] the target is Dual specificity calcium/calmodulin-dependent 3',5'-cyclic nucleotide phosphodiesterase 1B (Homo sapiens, UniProt Q01064). Briefly: Inhibition of PDE1B (146 to 506 residues) (unknown origin) using [3H]-cGMP substrate incubated for 15 mins by liquid scintillation counting method.
Dual specificity calcium/calmodulin-dependent 3',5'-cyclic nucleotide phosphodiesterase 1B, sequence (Q01064 whole entry, the tested form may be a part): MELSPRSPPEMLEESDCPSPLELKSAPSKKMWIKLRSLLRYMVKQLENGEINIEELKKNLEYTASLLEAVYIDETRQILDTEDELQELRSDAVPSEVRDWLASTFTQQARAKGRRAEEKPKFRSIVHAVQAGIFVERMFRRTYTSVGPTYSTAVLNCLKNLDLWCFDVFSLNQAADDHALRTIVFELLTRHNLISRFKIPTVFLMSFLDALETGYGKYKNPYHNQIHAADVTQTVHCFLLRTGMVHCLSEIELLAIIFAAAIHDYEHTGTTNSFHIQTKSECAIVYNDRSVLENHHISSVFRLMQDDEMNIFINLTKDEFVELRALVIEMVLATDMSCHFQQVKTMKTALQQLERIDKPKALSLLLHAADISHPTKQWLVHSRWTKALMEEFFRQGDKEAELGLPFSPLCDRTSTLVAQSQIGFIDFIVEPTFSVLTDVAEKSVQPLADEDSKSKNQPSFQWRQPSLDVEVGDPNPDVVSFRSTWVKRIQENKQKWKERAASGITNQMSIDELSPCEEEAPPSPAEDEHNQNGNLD
Data set [5] concerns the target High affinity cGMP-specific 3',5'-cyclic phosphodiesterase 9A (Homo sapiens, UniProt O76083). Briefly: Inhibition of PDE9A (181 to 506 residues) (unknown origin) using [3H]-cGMP substrate incubated for 15 mins by liquid scintillation counting method.
Data set [6] concerns Rattus norvegicus. Briefly: Anti-pulmonary fibrosis activity in Sprague-Dawley rat model of BLM-induced idiopathic pulmonary fibrosis assessed as reduction in peak expiratory flow at 150 mg/kg, po dosed daily for 28 days by mka noninvasive pulmonary monitoring system based method. In kind it is functional, organism-based.
The test system of data set [7] is Rattus norvegicus. Briefly: Anti-pulmonary fibrosis activity in Sprague-Dawley rat model of BLM-induced idiopathic pulmonary fibrosis assessed as reduction in mid-expiratory flow at 150 mg/kg, po dosed daily for 28 days by mka noninvasive pulmonary monitoring system based method. The class given is functional, organism-based.
The test system of data set [8] is Rattus norvegicus. Briefly: Anti-pulmonary fibrosis activity in Sprague-Dawley rat model of BLM-induced idiopathic pulmonary fibrosis assessed as reduction in peak inspiratory flow at 150 mg/kg, po dosed daily for 28 days by mka noninvasive pulmonary monitoring system based method. In kind it is functional, organism-based.
Data set [9] concerns Rattus norvegicus. Briefly: Anti-pulmonary fibrosis activity in Sprague-Dawley rat model of BLM-induced idiopathic pulmonary fibrosis assessed as reduction in end-expiratory pause at 150 mg/kg, po dosed daily for 28 days by mka noninvasive pulmonary monitoring system based method. In kind it is functional, organism-based.
The test system of data set [10] is Rattus norvegicus. In words: Anti-pulmonary fibrosis activity in Sprague-Dawley rat model of BLM-induced idiopathic pulmonary fibrosis assessed as reduction in end-inspiratory pause at 150 mg/kg, po dosed daily for 28 days by mka noninvasive pulmonary monitoring system based method. In kind it is functional, organism-based.
Data set [11] relates to Rattus norvegicus. Briefly: Anti-pulmonary fibrosis activity in Sprague-Dawley rat model of BLM-induced idiopathic pulmonary fibrosis assessed as inhibition of collagen deposition at 150 mg/kg, po dosed daily for 28 days by Masson staining based assay. In kind it is functional, organism-based.
Data set [12] has as its system Rattus norvegicus. Briefly: Anti-pulmonary fibrosis activity in Sprague-Dawley rat model of BLM-induced idiopathic pulmonary fibrosis assessed as reduction in enhanced pause at 150 mg/kg, po dosed daily for 28 days by mka noninvasive pulmonary monitoring system based method. In kind it is functional, organism-based.
Data set [13] deals with Rattus norvegicus. In words: Anti-pulmonary fibrosis activity in Sprague-Dawley rat model of BLM-induced idiopathic pulmonary fibrosis assessed as reduction in lung structural damage at 150 mg/kg, po dosed daily for 28 days by H and E staining based assay. In kind it is functional, organism-based.

High affinity cGMP-specific 3',5'-cyclic phosphodiesterase 9A, sequence (O76083 whole entry, the tested form may be a part): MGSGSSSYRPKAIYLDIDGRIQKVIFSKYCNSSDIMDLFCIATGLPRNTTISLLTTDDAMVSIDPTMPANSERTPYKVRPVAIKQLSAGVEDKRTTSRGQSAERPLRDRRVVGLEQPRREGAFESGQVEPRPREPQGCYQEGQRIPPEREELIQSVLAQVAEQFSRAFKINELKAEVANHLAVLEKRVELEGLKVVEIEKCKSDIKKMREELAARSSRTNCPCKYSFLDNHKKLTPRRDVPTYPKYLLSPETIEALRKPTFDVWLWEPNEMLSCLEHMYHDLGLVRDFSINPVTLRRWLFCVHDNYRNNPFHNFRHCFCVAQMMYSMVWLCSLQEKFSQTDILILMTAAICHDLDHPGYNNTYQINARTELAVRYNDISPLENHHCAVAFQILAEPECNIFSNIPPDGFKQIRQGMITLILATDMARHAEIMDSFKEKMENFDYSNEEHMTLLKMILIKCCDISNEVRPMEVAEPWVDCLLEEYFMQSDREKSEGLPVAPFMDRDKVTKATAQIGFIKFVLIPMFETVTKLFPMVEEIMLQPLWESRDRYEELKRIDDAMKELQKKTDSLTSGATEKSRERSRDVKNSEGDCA

For `C[C@@H](Nc1nc2c(cnn2C(C)(C)C)c(=O)n1Cc1ccc2c(c1)OCO2)c1ccc(Cl)cc1`, in data set [1], the concentration for half-maximal inhibition (IC50) (commonly the concentration that inhibits the measured activity by half) came to 27 nM. Moreover, the half-life – broadly, the time needed for the level to fall by half in the phase considered – in data set [2] was 2.1 min.
With `CC(C)(C)n1ncc2c(=O)n(Cc3ccc(F)cc3)c(N[C@@H]3CCc4ccccc43)nc21`, in data set [3], the inhibition (commonly the relative decrease from the control value, in per cent) came out at 54%.
With `CC(C)n1ncc2c(=O)n(Cc3ccc4c(c3)OCO4)c(N[C@H](C)c3ccc(Cl)cc3)nc21`, the IC50 in data set [1] turned out to be 20 nM. Further, the half-life in [2] was 1.6 min.
Regarding `C[C@@H](Nc1nc2c(cnn2C2CCCC2)c(=O)n1C)c1ccc(Cl)cc1`, the 50% inhibitory concentration (IC50) in data set [1] came to 258 nM.
Turning to `C[C@@H](Nc1nc2c(cnn2C2CCCC2)c(=O)n1Cc1ccccc1)c1ccc(Cl)cc1`, the IC50 in data set [4] was 23 nM; in data set [1], 4.7 nM; in [5], greater than 10000 nM. In data set [2], this compound gave a half-life of 0.5 min.
Regarding `C[C@H](Nc1nc2c(cnn2C(C)(C)C)c(=O)n1Cc1ccccc1)c1ccc(Cl)cc1`, the IC50 in [1] is 157 nM.
In the case of `CC(C)n1ncc2c(=O)n(Cc3ccncc3)c(N[C@H](C)c3ccc(Cl)cc3)nc21`, in data set [3], the inhibition came out at 39%.
Same read-out and setting: the value for `CCn1c(N[C@H](C)c2ccc(Cl)cc2)nc2c(cnn2C2CCCC2)c1=O` was 13%.
For `C[C@@H](Nc1nc2c(cnn2C2CCCC2)c(=O)[nH]1)c1ccc(Cl)cc1`, the IC50 in data set [4] amounted to 80 nM.
Consider `C[C@@H](Nc1nc2c(cnn2C(C)(C)C)c(=O)n1C)c1ccc(Cl)cc1`, for which, in [1], the half-inhibitory concentration (IC50) is 65 nM.
As for `C[C@@H](Nc1nc2c(cnn2C(C)(C)C)c(=O)n1Cc1ccccc1)c1ccc(Cl)cc1`, the 50% inhibitory concentration (IC50) in data set [1] was determined as 1.5 nM. In data set [2], the half-life came out at 8.2 min.
In the case of `CC(C)n1ncc2c(=O)n(Cc3ccccc3)c(N[C@H](C)c3ccc(Cl)cc3)nc21`, the IC50 in [1] amounted to 0.9 nM. Further, in data set [2], the half-life was found to be 2.4 min.
As to `C[C@H](Nc1nc2c(cnn2C(C)(C)C)c(=O)n1Cc1ccccc1)c1ccc(F)cc1`, the IC50 in [1] came out at 245 nM.
Take `CC(C)n1ncc2c(=O)n(C)c(N[C@H](C)c3ccc(Cl)cc3)nc21`: the IC50 in data set [1] was 57 nM. The half-life in [2] stood at 2.2 min.
In the case of `Cc1ccc(=O)n(-c2ccccc2)c1`, the outcome in data set [6], in data set [7], in data set [8], in [9], in data set [10] and in [11] was Active. In addition, the result in data set [12] and in [13] was Active.
Take `CC(C)n1ncc2c(=O)n(Cc3ccsc3)c(N[C@H](C)c3ccc(Cl)cc3)nc21`: in data set [3], the inhibition was found to be 47%.
`CC(C)(C)n1ncc2c(=O)n(Cc3ccc(F)cc3)c(N[C@H]3CCc4ccccc43)nc21`: the inhibition in data set [3] was 37%.
Consider `CC(C)Cn1c(N[C@H](C)c2ccc(Cl)cc2)nc2c(cnn2C2CCCC2)c1=O`, for which, in [3], the inhibition came out at 5%.
As to `C[C@@H](Nc1nc2c(cnn2C(C)(C)C)c(=O)n1Cc1ccccc1)c1ccc(F)cc1`, in data set [1], the IC50 came to 2.6 nM.
As for `CC1c2ccccc2CCN1c1nc2c(cnn2C(C)(C)C)c(=O)n1Cc1ccc(F)cc1` (stereo not given), in data set [3], the inhibition worked out at 16%.
